# Measurements from patent US20240408054A1, “COMPOSITIONS AND METHODS FOR […] OF R(-)-MDA” (priority 2023, published 2024).
# Where two headings read alike, the source gives them in different places.
# Key:
# [1] = 5-Dimensions-Altered States of Consciousness (5D-ASC); type: in vivo, human
# From the text: This is generally unexpected given the prior results that have been reported for MDMA. One notable finding from the assessment is the ratio of Oceanic Boundlessness (OB) to Dread of Ego Dissolution (DED), which are considered a useful metric. OB is positively correlated with psychedelic-mediated antidepressant efficacy while DED is negatively correlated. […] The OB-DED ratio is consistent with the 11-Dimensional Altered States of Consciousness (11D-ASC, see below).
# [2] = Emotional Breakthrough Inventory (EBI); type: in vivo, human; conditions: 75-225 mg
# From the text: Self-reported breakthrough responses included: facing emotionally difficult feelings that are usually pushed aside; experiencing resolution of a personal conflict or trauma; ability to explore challenging emotions and memories; having an emotional breakthrough; achieving a sense of closure on an emotional problem; achieving emotional release followed by sense of relief.
# [3] = Visual Analog Scale (VAS) subjective experience; type: in vivo, human
# From the text: Visual Analogue Scales (VAS) was used to measure subjective experience, including experiences such as Happy, Open, Loving, Close to Others, Sociable, and Lonely. […] Some signal increases were observable for acute increases in the VAS scores of Happy, Open, and Loving experiences, and an acute decrease associated with Lonely (FIG. 2). However, the degree of those signals was far less than previously reported signals for racemic MDMA. These effects for R(−)-MDMA were observable within the acute treatment phase and were dimished (relative to baseline) after 18 hours post-dosing. […] However, R(−)-MDMA did show a consistent pattern in the 225 mg cohort, with highest changes relative to baseline and with similar directionality as the effects reported for racemic MDMA.
# [4] = 11-Dimensions-Altered States of Consciousness (11D-ASC); type: in vivo, human
# From the text: The results of the 11D-ASC assessment further confirms the unexpected psychedelic-like response associated with R(−)-MDMA.
# [5] = Depression Anxiety Stress Scale (DASS); type: in vivo, human; conditions: for DASS Anxiety Difference with Placebo and 95% CI / DASS Depression Difference with Placebo and 95% CI / DASS Stress Difference with Placebo and 95% CI / DASS Anxiety LSMean and 95% CI / DASS Depression LSMean and 95% CI / DASS Stress LSMean and 95% CI: Day 8; for DASS Anxiety LSMean and 95% CI / DASS Depression LSMean and 95% CI / DASS Stress LSMean and 95% CI: change from baseline
# From the text: The Depression Anxiety Stress Scale (DASS) is a 42-item self-report instrument for measuring depression, anxiety and tension/stress.
# [6] = Self-Connectedness Scale / Self-Compassion Scale (SCS); type: in vivo, human; conditions: for Self-Connectedness Scale LSMean and 95% CI: change from baseline
# From the text: The Self-Compassion Scale (SCS) is a 12-item self-report measure that is used by adults to measure their capacity for self-compassion-the ability to hold one's feelings of suffering with a sense of warmth, connection and concern.
# [7] = Challenging Experiences Questionnaire (CEQ); type: in vivo, human; conditions: 6.5 hours post dosing
# From the text: Seven Challenging Experiences Questionnaire (CEQ) factors (grief, fear, death, insanity, isolation, physical distress, and paranoia) provide a phenomenological profile of challenging aspects of experiences with R(−)-MDMA.
# [8] = Multifaceted Empathy Test (MET); type: in vivo, human
# From the text: The Multifaceted Empathy Test (MET) measures cognitive empathy (CE), explicit emotional empathy (EEE) and implicit emotional empathy (IEE). Hurlemann R, et al., (2010) Oxytocin enhances amygdala-dependent, socially reinforced learning and emotional empathy in humans. J Neurosci 30:4999-5007.
# [9] = Phase 1 clinical study: safety and tolerability; conditions: healthy volunteers, single oral dose 75-225 mg
# [10] = Spoken Intensity Rating Scale (SIRS); type: in vivo, human
# [11] = Phase 1 clinical study: pharmacokinetics (plasma); type: in vivo, human
# [12] = design: species or system human; conditions: in vivo
# [13] = Neuroendocrine effects (hormone concentrations); type: in vivo, human
# [14] = prior studies (Hysek 2012, 2014; Thompson 2007); cited from earlier work
# [15] = other studies in healthy human subjects; cited from earlier work
# [16] = racemic MDMA at 125 mg (FIG. 9); cited from earlier work
# [17] = 75-225 mg, statistical significance at higher doses
# [18] = any cohort compared with the placebo group
smiles,measurement,setting,value
CN[C@H](C)Cc1ccc2c(c1)OCO2 [R(−)-MDMA],ratio of Oceanic Boundlessness (OB) to Dread of Ego Dissolution (DED),[1]; 175 mg cohort,very favorable ratio
same,5D-ASC subcomponents and total score,[1]; [17],dose-dependent increase in all measured subcomponents
same,EBI observations,[2],clear dose-dependent response with statistical significance at higher doses
same,VAS scores for Close to Others and Sociable,[3]; all cohorts,showed no changes from baseline compared to placebo in all cohorts
same,"VAS scores for Happy, Open, Loving, and Lonely",[3]; compared to placebo control,showed changes from baseline (prior to treatment) in a dose-dependent manner
same,11D-ASC response profile,"[4]; 175 mg and 225 mg, compared with psilocybin","many similarities to that of psilocybin, with slightly less imagery and slightly more insightfulness"
same,11D-ASC subcomponents and total score,[4]; [17],dose-dependent increase in all measured subcomponents
same,DASS anxiety,"[5]; Day 8, compared to placebo",lowered anxiety at lower doses but increased anxiety at 225 mg compared to placebo
same,DASS Anxiety Difference with Placebo and 95% CI,[5]; 75 mg oral,−1.04
same,DASS Depression Difference with Placebo and 95% CI,[5]; 75 mg oral,−0.15
same,DASS Stress Difference with Placebo and 95% CI,[5]; 75 mg oral,−0.93
same,DASS Anxiety Difference with Placebo and 95% CI,[5]; 125 mg oral,−1.07
same,DASS Depression Difference with Placebo and 95% CI,[5]; 125 mg oral,−0.26
same,DASS Stress Difference with Placebo and 95% CI,[5]; 125 mg oral,−0.91
same,DASS Anxiety Difference with Placebo and 95% CI,[5]; 175 mg oral,−1.08
same,DASS Depression Difference with Placebo and 95% CI,[5]; 175 mg oral,−0.03
same,DASS Stress Difference with Placebo and 95% CI,[5]; 175 mg oral,1.11
same,DASS Anxiety Difference with Placebo and 95% CI,[5]; 225 mg oral,0.94
same,DASS Depression Difference with Placebo and 95% CI,[5]; 225 mg oral,1.29
same,DASS Stress Difference with Placebo and 95% CI,[5]; 225 mg oral,1.68
same,DASS Anxiety LSMean and 95% CI,[5]; 75 mg oral,−1.22
same,DASS Depression LSMean and 95% CI,[5]; 75 mg oral,−1.03
same,DASS Stress LSMean and 95% CI,[5]; 75 mg oral,−2.57
same,DASS Anxiety LSMean and 95% CI,[5]; 125 mg oral,−1.24
same,DASS Depression LSMean and 95% CI,[5]; 125 mg oral,−1.14
same,DASS Stress LSMean and 95% CI,[5]; 125 mg oral,−2.54
same,DASS Anxiety LSMean and 95% CI,[5]; 175 mg oral,−1.26
same,DASS Depression LSMean and 95% CI,[5]; 175 mg oral,−0.91
same,DASS Stress LSMean and 95% CI,[5]; 175 mg oral,−0.52
same,DASS Anxiety LSMean and 95% CI,[5]; 225 mg oral,0.76
same,DASS Depression LSMean and 95% CI,[5]; 225 mg oral,0.41
same,DASS Stress LSMean and 95% CI,[5]; 225 mg oral,0.05
same,Self-Connectedness Scale Difference with Placebo and 95% CI,"[6]; Day 2, 75 mg oral",0.14
same,Self-Connectedness Scale Difference with Placebo and 95% CI,"[6]; Day 2, 125 mg oral",0.33
same,Self-Connectedness Scale Difference with Placebo and 95% CI,"[6]; Day 2, 175 mg oral",0.42
same,Self-Connectedness Scale Difference with Placebo and 95% CI,"[6]; Day 2, 225 mg oral",0.26
same,SCS changes from baseline,[6]; Day 2 and Day 8,clear dose-dependent response with statistical significance at Day 8
same,Self-Connectedness Scale Difference with Placebo and 95% CI,"[6]; Day 8, 75 mg oral",0.37
same,Self-Connectedness Scale Difference with Placebo and 95% CI,"[6]; Day 8, 125 mg oral",0.40
same,Self-Connectedness Scale Difference with Placebo and 95% CI,"[6]; Day 8, 175 mg oral",0.41
same,Self-Connectedness Scale Difference with Placebo and 95% CI,"[6]; Day 8, 225 mg oral",0.52
same,Self-Connectedness Scale LSMean and 95% CI,"[6]; Day 2, 75 mg oral",0.04
same,Self-Connectedness Scale LSMean and 95% CI,"[6]; Day 2, 125 mg oral",0.23
same,Self-Connectedness Scale LSMean and 95% CI,"[6]; Day 2, 175 mg oral",0.32
same,Self-Connectedness Scale LSMean and 95% CI,"[6]; Day 2, 225 mg oral",0.16
same,Self-Connectedness Scale LSMean and 95% CI,"[6]; Day 8, 75 mg oral",0.08
same,Self-Connectedness Scale LSMean and 95% CI,"[6]; Day 8, 125 mg oral",0.12
same,Self-Connectedness Scale LSMean and 95% CI,"[6]; Day 8, 175 mg oral",0.12
same,Self-Connectedness Scale LSMean and 95% CI,"[6]; Day 8, 225 mg oral",0.24
same,CEQ changes from baseline,[7],clear dose-dependent response with statistical significance at higher doses
same,"MET scores: CE positive, EEE all and EEE negative emotions",[8]; all cohorts,showed no changes from baseline compared to placebo in all cohorts
same,"MET LSmean scores: CE all, CE negative, EEE positive, IEE all, IEE positive, IEE negative emotions",[8]; near 3.5 hours,showed changes from baseline in a dose-dependent manner
same,Peak body temperatures,[9],fell within the normal range
same,Treatment-related adverse events: headache,[9],16.7%
same,Treatment-related adverse events: nausea,[9],29.2%
same,serious or severe AEs,[9],no serious or severe AEs
same,study discontinuations,[9],no study discontinuations
same,tolerability,[9],well-tolerated
same,blood pressure and heart rate,[9]; limited dose dependency,Non-clinically significant increases
same,SIRS dose response,[10]; 75-225 mg oral,very strong dose response
same,time of peak SIRS relative to plasma PK Tmax,[10]; each dose,much earlier than the plasma PK Tmax at each dose
same,systemic exposure (Cmax/AUC) to the active metabolite R(−)-MDA,"[11]; after R(−)-MDMA dosing, at higher doses",increased with doses in a slightly less than dose-dependent manner
same,PK food effects,[11]; fasted cohorts versus one fed arm,No patterns in the data suggested any substantial PK food effects
same,AUC0-24h compared to prior reports for total MDMA following racemic-MDMA dosing,[11]; plasma,substantially higher
same,Systemic exposure (Cmax and AUC),"[11]; plasma, 75-225 mg oral",increase with increasing doses in a generally dose-dependent manner
same,"pharmacokinetics, dose dependence","[11]; plasma, 75-225 mg oral",dose-dependent pharmacokinetics
same,FERT mean happiness reaction time,[12],reduction in the mean happiness reaction time
same,FERT median reaction time,[12],greater reduction in the median reaction time
same,concentration of mature brain-derived neurotrophic factor,[13]; [18],no obvious change from baseline
same,concentration of oxytocin,[13]; [18],no obvious change from baseline
same,concentration of prolactin,[13]; compared with the placebo group,consistent increase
"CNC(C)Cc1ccc2c(c1)OCO2 (racemic) [racemic MDMA, 3,4-methylenedioxymethamphetamine]",oxytocin release,[14],5-6 x
same,"VAS Happy, Open, Loving, Close to Others, and Sociable",[15],acute and substantial increases
same,11D-ASC response profile,[16],no visual hallucinations and little to no insightfulness
